Test results taken from patent US10421725B2, “Alkoxyamines for the treatment of cancers” (Centre National De La Recherche Scientifique, priority 2013, dated 2019).

Tests used:
[1] = cited from earlier work
U87 cells [2] = experiment: Viability test (LIVE/DEAD kit, flow cytometry); format: cell-based, Human
Description: (§1) Cell culture: Human glioblastoma-astrocytoma cell line U87 MG from the American Type Culture Collection (reference ATCC-HTB-14) were cultured in Dulbecco's modified eagles medium (DMEM, Gibco Corp) supplemented with 10% fetal calf serum (FCS, Gibco Corp), in a humidified atmosphere with 5% CO2 at 37° C.
Viability Test: The viability study of U87 cells treated or not with the alkoxyamine was measured by the LIVE/DEAD® Viability/Cytotoxicity Kit (Molecular Probes, Invitrogen, Life Technologies). Briefly, the cells were allowed to grow during 24 h on 24 multiwell plates (Becton-Dickinson, 2 cm^2/well). They were then treated with the alkoxyamine at concentrations ranging from 0.1 to 3 mM and tested for viability at distinct observation times (1, 3, 6, 24 or 72 h). To do this the adherent cells were dissociated from the plate by trypsinization and pelleted by centrifugation. Then, the cells were resuspended at 10^6 cells/mL on calcein-am and ethidium homodimer-1 solution during 20 minutes at room temperature and analyzed on a Guava easyCyte flow cytometer/counter (Millipore). U87 cells viability was also measured after treatment with previously homolysed alkoxyamine. For these experiments, the alkoxyamine was incubated in the culture medium during 72 h at 6 mM without the cells. U87 cells were then treated with different concentrations of this homolysed alkoxyamine for 1 h and a viability test was performed as previously described. The viability test in the presence of the free radical scavenger was carried out with an alkoxyamine concentration of 3 mM and an incubation time of 1 h. U87 cells viability was measured versus increasing concentrations the radical scavenger, trihydroxyethylrutin (Santa Cruz Biotechnology, inc.) namely, 20, 50 or 100 mM.

[3] = Monitoring of ALK-1 homolysis by Overhauser-enhanced MRI (OMRI); format: physicochemical
Description: EPR Cavity and MRI devices. The OMRI experiment were done in a C-shaped 0.2 T MRI system (Magnetom Open Viva, Siemens, Erlangen, Germany) and a resonant TE011 transverse electric mode EPR cavity setup (Bruker, Wissembourg, France) as described previously. The EPR cavity, placed at the center of the magnet, was used to saturate the electron spin transition of the nitroxide SG1 produced upon ALK-1 homolysis. A homemade saddle-shaped MRI coil (28 mm in diameter and 29 mm in length) in the EPR cavity was used for imaging.
Electron spin saturation was carried out at 5.4573 GHz, corresponding to the first line at high field from the center of the EPR spectrum. The proton frequency was 8.24 MHz. Sample temperature was kept at 37° C.
OMRI experiments were performed in two NMR tubes (4 mm inner diameter): one containing 0.8 mM of SG1 nitroxide in phosphate buffer saline (not shown) and the other with 0.8 mM of ALK-1 in DMEM, 10% FCS. ALK-1 homolysis was followed for 48 hours.
Pulse sequences. […] All MR adjustments were done manually, using the same fixed receiver amplification gain for both measurements, without (Soff) and with (Son) HF irradiation, so that signals can be directly compared and Overhauser enhancements (Son/Soff) calculated.
Post-processing. […] Signal intensity was measured in a rectangular region of interest of 2 mm^2 positioned in the NMR tube area. […]

U87 cells [4] = experiment: Apoptosis detection through caspase-3/-7 assay; format: cell-based, Human
Description: as §1
Apoptosis detection through caspase-3/-7 assay. Quantitative assessment of apoptotic cells was also conducted by the detection of caspase activity using the Vybrant® FAM Caspase-3 and -7 Assay Kit (Molecular Probes, Invitrogen, Life Technologies). Briefly, cells were treated with the previously described ALK-1 concentrations during 3, 24 or 72 h. After the alkoxyamine treatment, the cells were dissociated from the support, washed and incubated 1 h at 37° C. in FLICA working solution. Then, the cells were washed and green fluorescence was measured by flow cytometry. These experiments were performed twice.

U87 cells [5] = experiment: Mitochondrial alterations measurements (TMRE, NAO); format: cell-based, Human
Description: as §1
Mitochondrial alterations measurements. The red fluorescent dye tetramethylrhodamine ethyl ester (TMRE, Molecular Probes, Invitrogen, Life Technologies) was used to follow variations in mitochondrial membrane potential. This cationic probe accumulates in polarized mitochondria through the electrochemical gradient. Nonyl Acridine Orange (NAO, Molecular Probes, Invitrogen, Life Technologies) was then used as a complementary assay to assess the changes in mitochondrial morphology. Cells were plated on 24 multi-well plates (Becton-Dickinson, 2 cm^2/well) during 24 h and treated with a range of ALK-1 concentrations (0.1; 0.25; 0.375; 0.5; 0.75; 1.0 and 1.5 mM). After 3, 24 or 72 h, cells were resuspended in TMRE (250 nM) or NAO (500 nM) and incubated 30 minutes at 37° C., 5% CO2. Incubation with 0.5 mM of Carbonyl cyanide 3-chlorophenylhydrazone (CCCP, Sigma-Aldrich) was performed as positive control of the mitochondrial depolarization staining. Then, cells were washed and analyzed by flow cytometry. All the experiments were performed three times.

U87 cells [6] = experiment: Oxidative stress (carboxy-H2DCFDA probe, flow cytometry); format: cell-based, Human; settings: 3 mM, 1 h
Description: as §1
Oxidative stress: The cells were grown in a 24 multiwell plate as previously described. Then, cells were dissociated using 0.05% trypsin (Invitrogen, Carlsbad, Calif., USA) and suspended at a density of 1×10^6 cells/mL in carboxy-H2DCFDA (Molecular Probes, Invitrogen, Life Technologies) at 50 μM. After 30 minutes incubation at 37° C., cells were washed with phosphate buffered saline (PBS). Cells were centrifuged and resuspended with cell culture media containing or not 3 mM alkoxyamine with or without trihydroxyethylrutin at 20 or 50 mM. After incubation time the cells were washed and analyzed on a Guava easyCyte flow cytometer/counter.

U87 cells [7] = experiment: Cell death analysis by annexin V/propidium iodide staining; format: cell-based, Human
Description: as §1
Cell death analysis by annexin V/propidium iodide staining. Cell death was detected by annexin V-FITC (Molecular Probes, Invitrogen, Life Technologies) binding to exposed […] (PS) residues at the surface of cells. Cells were treated with ALK-1 at concentrations ranging from 0.1 to 1.5 mM at 37° C. and tested at distinct observation times (3, 24 or 72 h). After treatment, cells were re-suspended in staining buffer containing propidium iodide (PI, 2 μg/mL) and annexin V-FITC. Double-labeling was performed at room temperature for 15 min in darkness. Then, the percentage of viable (IP−/AV−), early apoptotic (IP−/AV+) and late apoptosis/necrotic cells (IP+/AV+) was quantified by flow cytometry. These experiments were performed twice.

CCOP(=O)(OCC)C(N(OC(C)c1cc[n+](C)cc1)C(C)(C)C)C(C)(C)C (stereo not shown) [ALK-1, N-methyl 4-(1-((tert-butyl(1-(diethoxyphosphoryl)-2,2-dimethylpropyl)amino)oxy)ethyl)pyridin-1-ium 4-methylbenzenesulfonate]
Ea (homolysis activation energy), value reported [1]: 25.3 kcal/mol | cells saved by the free radical scavenger (U87 cells [2]; 3 mM alkoxyamine, 1 h, with free radical scavenger (trihydroxyethylrutin)): 80% | cells killed (U87 cells [2]; 3 mM, one hour): approximately 75% | cytotoxic effect (U87 cells [2]; 0.1 to 3 mM): dose-dependent cytotoxic effect | toxicity for U87 cells of previously homolysed alkoxyamine (U87 cells [2]; same concentration, previously homolysed (72 h in culture medium), 1 h treatment): do not carry any toxicity | Ea (homolysis activation energy) ([3]; afforded by the OMRI t1/2): 26.1 kcal/mol | half-life at 0.8 mM ([3]; cell culture medium (DMEM, 10% FCS), 0.8 mM, culture cell medium, 37° C., OMRI, read-out: experimental t1/2 of homolysis): ~2.08 h | cells carrying activated caspases (U87 cells [4]; 3 h, 1.5 mM): 92% | caspase positive cells (U87 cells [4]; 24 h, 1 mM): 88% | caspase+ cells (U87 cells [4]; 72 h, 0.25 mM): more than 40% | caspase positive cells (U87 cells [4]; 72 h, 0.5 mM): 80% | NAO staining (U87 cells [5]; 24 h, ALK-1 concentrations greater than 0.5 mM): increased | concentration from which the mitochondrial potential drops (TMRE) (U87 cells [5]; all times of observation (3, 24, 72 h)): ≥ 0.5 mM | oxidative stress (U87 cells [6]): strong oxidative stress | necrotic or apoptotic cells (PI+/AV+) (U87 cells [7]; 3 h, 1.5 mM): most cells were necrotic or apoptotic cells | necrotic or apoptotic cells (PI+/AV+) (U87 cells [7]; 24 h, 1 mM): 94% | PI+/AV+ cells (U87 cells [7]; 72 h, 0.5 mM): most cells were PI+/AV+

N#CC(C#N)=NNc1cccc(Cl)c1 [CCCP, Carbonyl cyanide 3-chlorophenylhydrazone, reference compound]
mitochondrial potential (TMRE) (U87 cells [5]; 0.5 mM CCCP positive control, all incubation times): expected drop of the mitochondrial potential | accessibility of the cardiolipins to NAO (U87 cells [5]; 0.5 mM CCCP, independently of incubation time): either neutral or positive
